Patent EP0717746B1, “PHOSPHINIC ACID DERIVATIVES WITH ANTI-HYPER GLYCEMIC AND/OR ANTI-OBESITY ACTIVITY” (SMITHKLINE BEECHAM PLC, priority 1993, dated 1995)

Molecular target: T1, human β3-adrenoceptor (Homo sapiens, UniProt P13945)
T1 construct: expressed in transfected cells; host or cells: CHO cells (stably transfected subclones); plasma membranes prepared
Assay: β3-Adrenoceptor-mediated adenylyl cyclase activity in CHO cell plasma membranes
Format: biochemical
Conditions: concentration of agonist producing 50 % activation of adenylyl cyclase; CHO cell plasma membranes transfected with the human β3-adrenoceptor; cAMP produced over 20 minutes
Protocol: Subclones of CHO cells were stably transfected with each of the human β1, β2 and β3-adrenoceptors^1. Cells were then disrupted by immersion in ice-cold lysis buffer (10 mM TRIS, 2mM EDTA , pH 7.4) containing protease inhibitors leupeptin and benzamidine (5 µg / ml) and soyabean trypsin inhibitor (10 µg / ml). Membranes were prepared by the method of Bouvier et. al.^2 and stored in 1 ml aliquots in liquid N2 for future use.
Adenylyl cyclase activity was assayed by the method of Kirkham et. al.^3 by the addition of 40 µl (70 -80 µg protein) to the incubation medium of the above CHO cell plasma membranes transfected with the human β3-adrenoceptor . cAMP produced over 20 minutes was separated from ATP by the method of Salomon et al.^4. Agonist EC50 values and intrinsic activities were expressed as the concentration of agonist producing 50 % activation of adenylyl cyclase and the maximum response produced by each agonist relative to that produced by (-) isoprenaline respectively.

T1 sequence (P13945 whole entry): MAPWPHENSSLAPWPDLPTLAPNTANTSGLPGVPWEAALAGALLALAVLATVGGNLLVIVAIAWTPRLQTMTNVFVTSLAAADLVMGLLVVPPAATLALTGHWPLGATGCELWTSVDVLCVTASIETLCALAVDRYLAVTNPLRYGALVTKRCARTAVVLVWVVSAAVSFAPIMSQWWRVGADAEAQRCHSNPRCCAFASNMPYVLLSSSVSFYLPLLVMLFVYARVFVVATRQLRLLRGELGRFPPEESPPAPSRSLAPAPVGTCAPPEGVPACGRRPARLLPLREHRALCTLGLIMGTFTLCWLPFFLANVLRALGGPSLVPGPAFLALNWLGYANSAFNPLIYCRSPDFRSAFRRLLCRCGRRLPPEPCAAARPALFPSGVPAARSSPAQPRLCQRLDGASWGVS

SMILES	EC50 [nM]
CCOP(=O)(CC)COc1ccc(CC(C)NC[C@H](O)c2ccc(O)c(O)c2)cc1 (some centres unmarked) [Example 2, (RR RS) Ethyl 4-[2-[2-(3,4-dihydroxyphenyl)-2-hydroxyethylamino]propyl]phenoxymethylethylphosphinate]	460
CC(Cc1ccc(OCP(=O)(O)c2ccccc2)cc1)NC[C@H](O)c1ccc(O)c(O)c1 (some centres unmarked) [Example 3, (RR RS) 4-[2-[2-(3,4-Dihydroxyphenyl)-2-hydroxyethylamino]propyl]phenoxymethyl phenylphosphinic acid.]	540
